Results published in patent publication US20060094722A1 (Eisai Co., Ltd., priority 2002, published 2006).
Counter-ions that a name gives are not always drawn.

Target: T1, DPPIV obtained from swine kidney (Sus scrofa, UniProt P22411)
T1 construct: DPPIV obtained from swine kidney; from tissue; host or cells: swine kidney
Assay: Assay for the DPPIV-inhibiting activity
Type: biochemical
Conditions: DPPIV 10 mU/mL; Gly-Pro-p-nitroanilide 0.33 mM; absorbance 405 nm; read-out: IC50
Procedure: DPPIV obtained from swine kidney was dissolved in a reaction buffer (50 mM Tris-HCl (pH 7.4)/0.1% BSA) at a fmal concentration of 10 mU/mL. A 110 μL aliquot of this enzyme solution was added to the reaction system, and then 15 μL of an agent was added. The reaction solution was incubated at room temperature for 20 minutes. 25 μL of a solution containing 2 mM Gly-Pro-p-nitroanilide was added to the reaction solution (at the final concentration of 0.33 mM) to start the enzyme reaction. The reaction time was 20 minutes. 25 μL of 1N phosphate solution was added to stop the reaction. […] The degree of inhibition to the enzyme reaction was determined, and IC50 was computed based on the absorbance.

T1 sequence (P22411 whole entry): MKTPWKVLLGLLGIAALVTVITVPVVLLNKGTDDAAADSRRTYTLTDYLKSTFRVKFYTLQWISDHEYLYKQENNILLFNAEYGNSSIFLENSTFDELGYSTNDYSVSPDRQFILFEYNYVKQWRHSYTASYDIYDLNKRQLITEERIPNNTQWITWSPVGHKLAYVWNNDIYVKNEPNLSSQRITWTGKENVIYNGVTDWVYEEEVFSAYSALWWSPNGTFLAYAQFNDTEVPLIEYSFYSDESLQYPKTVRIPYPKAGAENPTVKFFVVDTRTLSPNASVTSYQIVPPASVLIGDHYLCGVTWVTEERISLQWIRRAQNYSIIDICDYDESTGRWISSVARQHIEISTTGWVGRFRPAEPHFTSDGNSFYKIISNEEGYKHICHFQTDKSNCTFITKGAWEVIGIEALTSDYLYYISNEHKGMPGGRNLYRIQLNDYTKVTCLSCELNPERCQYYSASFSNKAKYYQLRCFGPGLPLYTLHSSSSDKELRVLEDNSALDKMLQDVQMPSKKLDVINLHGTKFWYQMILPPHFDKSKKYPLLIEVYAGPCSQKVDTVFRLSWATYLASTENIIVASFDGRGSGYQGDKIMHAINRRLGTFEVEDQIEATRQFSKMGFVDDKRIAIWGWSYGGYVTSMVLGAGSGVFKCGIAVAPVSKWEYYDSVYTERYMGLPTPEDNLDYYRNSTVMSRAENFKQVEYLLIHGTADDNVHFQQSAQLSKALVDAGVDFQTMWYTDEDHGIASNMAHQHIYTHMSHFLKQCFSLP

Compound	IC50
CC#CCn1c(N2CCNCC2)nc2nc(OC(C(=O)OC)c3ccccc3)n(C)c(=O)c21 (centres unmarked) [Example 4, trifluoroacetate]	211 nM
CC#CCn1c(N2CCNCC2)nc2nc(SCC(=O)O)n(C)c(=O)c21 [Example 79, [7-(2-Butynyl)-1-methyl-6-oxo-8-(piperazin-1-yl)-6,7-dihydro-1H-purin-2-ylsulfanyl]acetic acid trifluoroacetate]	35.7 nM
CC#CCn1c(N2CCNCC2)nc2nc(SCCC)n(C)c(=O)c21 [Example 129, 7-(2-Butynyl)-1-methyl-8-(piperazin-1-yl)-2-propylsulfanyl-1,7-dihydropurin-6-one trifluoroacetate]	115 nM
CC#CCn1c(N2CCNCC2)nc2nc(Oc3ccccc3C(N)=O)n(Cc3ccc(C#N)cc3)c(=O)c21 [Example 235, 2-[7-(2-Butynyl)-1-(4-cyanobenzyl-6-oxo-8-(piperazin-1-yl)-6,7-dihydro-1H-purin-2-yloxy]benzamide trifluoroacetate]	1.44 nM
CC#CCn1c(N2CCNCC2)nc2ccn(CC(=O)c3ccccc3)c(=O)c21 [Example 341, 3-(2-Butynyl)-5-(2-oxo-2-phenylethyl)-2-(piperazin-1-yl)-3,5-dihydroimidazo[4,5-c]pyridin-4-one trifluoroacetate]	7.32 nM
CC#CCn1c(N2CCNCC2)nc2c1c(=O)n(CC(=O)OC)c(=O)n2C [Example 355, Methyl[7-(2-butynyl)-3-methyl-2,6-dioxo-8-(piperazin-1-yl)-2,3,6,7-tetrahydropurin-1-yl]acetate trifluoroacetate]	147 nM
CC#CCn1c(N2CCNCC2)nc2c1c(=O)n(CC(=O)c1ccccc1)c(=O)n2C [Example 361, 7-(2-Butynyl)-3-methyl-1-[(2-oxo-2-phenyl)ethyl]-8-(piperazin-1-yl)-3,7-dihydropurine-2,6-dione trifluoroacetate]	0.654 nM
Cn1c(=O)n(CCc2ccccc2)c(=O)c2c1nc(N1CCNCC1)n2-c1ccccc1Cl [Example 377, 7-(2-Chlorophenyl)-3-methyl-1-(2-phenethyl)-8-(piperazin-1-yl)-3,7-dihydropurine-2,6-dione trifluoroacetate]	8.77 nM
CC#CCn1c(N2CCNCC2)nc2c1c(=O)n(C)c(=O)n2CC1CCCO1 (centres unmarked) [Example 400, 7-(2-Butynyl)-3-(2-tetrahydrofuranyl)methyl-1-methyl-8-(piperazin-1-yl)-3,7-dihydropurine-2,6-dione trifluoroacetate]	183 nM
CC#CCn1c(N2CCNCC2)nc2c1c(=O)n(C)c(=O)n2C(C(=O)OC)c1ccccc1 (centres unmarked) [Example 402, Methyl[7-(2-butynyl)-1-methyl-2,6-dioxo-8-(piperazin-1-yl)-1,2,6,7-tetrahydropurin-3-yl]phenylacetate trifluoroacetate]	354 nM
CC#CCn1c(N2CCNCC2)nc2c1c(=O)n(C)c(=O)n2CC(=O)c1ccccc1 [Example 404, 7-(2-Butynyl)-3-(2-oxo-2-phenethyl)-1-methyl-8-(piperazin-1-yl)-3,7-dihydropurine-2,6-dione trifluoroacetate]	276 nM
CC#CCn1c(N2CCNCC2)nc2c1c(=O)n(C)c(=O)n2CCOCC [Example 407, 7-(2-Butynyl)-3-(2-ethoxyethyl)-1-methyl-8-(piperazin-1-yl)-3,7-dihydropurine-2,6-dione trifluoroacetate]	275 nM
CC#CCn1c(N2CCNCC2)nc2c1c(=O)n(C)c(=O)n2CC(=O)C(C)(C)C [Example 409, 7-(2-Butynyl)-3-(3,3-dimethyl-2-oxobutyl)-1-methyl-8-(piperazin-1-yl)-3,7-dihydropurine-2,6-dione trifluoroacetate]	222 nM
CC#CCn1c(N2CCNCC2)nc2c1c(=O)n(C)c(=O)n2C1CCNC1=O (centres unmarked) [Example 410, 7-(2-Butynyl)-1-methyl-3-(2-oxopyrrolidin-3-yl)-8-(piperazin-1-yl)-3,7-dihydropurine-2,6-dione hydrochloride]	64.9 nM
CC#CCn1c(N2CCNCC2)nc2c1c(=O)n(CC(=O)c1ccccc1)c(=O)n2CCOCC [Example 413, 7-(2-Butynyl)-3-(2-ethoxyethyl)-1-(2-oxo-2-phenylethyl-8-(piperazin-1-yl)-3,7-dihydropurine-2,6-dione trifluoroacetate]	1.95 nM
CC#CCn1c(N2CCNCC2)nc2c1c(=O)n(CC(=O)c1ccccc1)c(=O)n2CC(=O)OC [Example 415, Methyl[7-(2-butynyl)-2,6-dioxo-1-(2-oxo-2-phenylethyl)-8-(pipierazin-1-yl)-1,2,6,7-tetrahydropurin-3-yl]acetate trifluoroacetate]	1.81 nM

The remaining lines, values ahead:

IC50	Compound
141 nM	CC#CCn1c(N2CCNCC2)nc2nc(OC(C)C(=O)OCC)n(C)c(=O)c21 (centres unmarked) [Example 9, Ethyl 2-[7-(2-butynyl)-1-methyl-6-oxo-8-(piperazin-1-yl)-6,7-dihydro-1H-purin-2-yloxy]propionate]
183 nM	CC#CCn1c(N2CCNCC2)nc2nc(OCC)n(C)c(=O)c21 [Example 12, 7-(2-Butynyl)-2-ethoxy-1-methyl-8-(piperazin-1-yl)-1,7-dihydropurin-6-one]
125 nM	CC#CCn1c(N2CCNCC2)nc2nc(OCC(=O)OCC)n(C)c(=O)c21 [Example 13, Ethyl[7-(2-butynyl)-1-methyl-6-oxo-8-(piperazin-1-yl)-6,7-dihydro-1H-purin-2-yloxy]acetate]
272 nM	CC#CCn1c(N2CCNCC2)nc2nc(OC3(C(=O)OCC)CC3)n(C)c(=O)c21 [Example 16]
27.4 nM	CC#CCn1c(N2CCNCC2)nc2nc(C(N)=O)n(C)c(=O)c21 [Example 83, 7-(2-Butynyl)-1-methyl-6-oxo-8-(piperazin-1-yl)-6,7-dihydro-1H-purine-2-carboxamide]
185 nM	CC#CCn1c(N2CCNCC2)nc2cnn(C)c(=O)c21 [Example 115, 3-(2-Butynyl)-5-methyl-2-(piperazin-1-yl)-3,5-dihydroimidazo[4,5-d]pyridazin-4-one trifluoroacetate]
237 nM	CC#CCn1c(N2CCNCC2)nc2c1c(=O)n(C)c(=O)n2CC(=O)OC [Example 398, Methyl[7-(2-butynyl)-1-methyl-2,6-dioxo-8-(piperazin-1-yl)-1,2,6,7-tetrahydropurin-3-yl]acetate trifluoroacetate]
359 nM	CC#CCn1c(N2CCNCC2)nc2c1c(=O)n(C)c(=O)n2C(C)C(=O)OCC (centres unmarked) [Example 405, Ethyl 2-[7-(2-butynyl)-1-methyl-2,6-dioxo-8-(piperazin-1-yl)-1,2,6,7-tetrahydropurin-3-yl]propionate trifluoroacetate]
340 nM	CC#CCn1c(N2CCNCC2)nc2c1c(=O)n(C)c(=O)n2C(C)C [Example 408, 7-(2-Butynyl)-3-isopropyl-1-methyl-8-(piperazin-1-yl)-3,7-dihydropurine-2,6-dione trifluoroacetate]

Same assay, conditions: IC50 (nM), DPPIV 10 mU/mL; Gly-Pro-p-nitroanilide 0.33 mM; absorbance 405 nm

Compound	IC50
O=c1c2c(cnn1CCc1ccccc1)nc(N1CCNCC1)n2Cc1ccccc1 [Example 311, 3-Benzyl-5-(2-phenylethyl)-2-(piperazin-1-yl)-3,5-dihydroimidazo[4,5-d]pyridazin-4-one trifluoroacetate]	77.5 nM
C#CCn1c(=O)c2c(nc(N3CCNCC3)n2CC#CC)n(C)c1=O [Example 357, 7-(2-Butynyl)-3-methyl-8-(piperazin-1-yl)-1-(2-propynyl)-3,7-dihydropurine-2,6-dione trifluoroacetate]	323 nM
CC#CCn1c(=O)c2c(nc(N3CCNCC3)n2CC#CC)n(C)c1=O [Example 358, 1,7-bis(2-Butynyl)-3-methyl-8-(piperazin-1-yl)-3,7-dihydropurine-2,6-dione trifluoroacetate]	357 nM
CC#CCn1c(N2CCNCC2)nc2c1c(=O)n(CC#N)c(=O)n2C [Example 359, [7-(2-Butynyl)-3-methyl-2,6-dioxo-8-(piperazin-1-yl)-2,3,6,7-tetrahydropurin-1-yl]acetonitrile trifluoroacetate]	353 nM
CC#CCn1c(N2CCNCC2)nc2c1c(=O)n(CCc1ccccc1)c(=O)n2C [Example 367, 7-(2-Butynyl)-3-methyl-1-(2-phenylethyl)-8-(piperazin-1-yl)-3,7-dihydropurine-2,6-dione trifluoroacetate]	4.56 nM
CC#CCn1c(N2CCNCC2)nc2c1c(=O)n(CCc1ccccc1)c(=O)n2CC(=O)OCC [Example 416, Ethyl[7-(2-butynyl)-2,6-dioxo-1-(2-phenethyl)-8-(piperazin-1-yl)-1,2,6,7-tetrahydropurin-3-yl]acetate hydrochloride]	4.02 nM
CC#CCn1c(N2CCNCC2)nc2c1c(=O)n(CCc1ccccc1)c(=O)n2CC(=O)N1CCCC1 [Example 418, 7-(2-Butynyl)-3-[2-oxo-2-(pyrrolidin-1-yl)ethyl]-1-(2-phenethyl)-8-(piperazin-1-yl)-3,7-dihydro purine-2,6-dione hydrochloride]	1.14 nM

Now from value to compound:

IC50	Compound
285 nM	CC#CCn1c(N2CCNCC2)nc2c1c(=O)[nH]c(=O)n2C [Example 354, 7-(2-Butynyl)-3-methyl-8-(piperazin-1-yl)-3,7-dihydropurine-2,6-dione]
197 nM	CC#CCn1c(N2CCNCC2)nc2c1c(=O)n(C)c(=O)n2CC [Example 396, 7-(2-Butynyl)-3-ethyl-1-methyl-8-(piperazin-1-yl)-3,7-dihydropurine-2,6-dione trifluoroacetate]
266 nM	CC#CCn1c(N2CCNCC2)nc2c1c(=O)n(C)c(=O)n2CCC [Example 403, 7-(2-Butynyl)-3-propyl-1-methyl-8-(piperazin-1-yl)-3,7-dihydropurine-2,6-dione trifluoroacetate]
